Patent US12213959B2, “Use of 3-O-sulfamoyloxy-7β-methyl-d-homo-6-oxaestra-1,3,5(10),8(9)-tetraen-17a-one to treat breast cancer” (priority 2018, dated 2025)
“And” between values parts separate entries of the source, which are not always exact repeats. Identical values can stand only once. Marks after values point to notes of the source that are not given here.

Experiments:
[1] = test system: Normal human dermal fibroblasts (HDF); assay: Proliferative activity of normal human skin fibroblasts (negative control); type: cell-based; conditions: 20 μg/ml
Procedure: The study analysis was carried out on an passaged MCF-7 human cells culture culture (breast adenocarcinoma). Normal human dermal fibroblasts (HDF) of early passages were used as a negative control.
The cells were cultivated in Carrel vials in DMEM/F12 medium (Biolot) with 1.0% of antibiotic-free fetal bovine embryonic serum (Biolot) added in the 5% CO2 atmosphere, at 37° C.
The cells were seeded on Carrel vials at 50×10^4 cells per flask. To study the proliferative activity of the cells under conditions of sulfatase inhibition, 24 hours after seeding the culture medium […], and then these tumor cell lines were incubated for various periods of time (24 to 72 hrs). The inhibitor was dissolved in DMSO. […] To exclude the cytotoxic effect of DMSO, a control sample comprising DMSO without sulfatase inhibitor was prepared.
To exclude nonspecific detrimental effects of the compounds, normal human skin fibroblasts were used. Then the cells were detached with the versene-trypsin solution (Biolot), plated onto Carrel vials containing a fresh complete culture medium. The cells were counted when untreated control cells reached the maximum cell density per unit of surface area of a culture flask (monolayer), and their number was set as 100%. The proliferative activity of all of the studied cell cultures exposed to sulfatase inhibitors was determined in triplicate.

[2] = test system: breast tumours in FBV/N female mice, transgenic for HER-2/neu; assay: Antitumour activity on breast tumours of HER-2/neu transgenic mice; type: in vivo; conditions: for antitumour activity compared with Tamoxifen: FVB mice transgenic for HER-2/neu with breast tumours; for Average tumor volume, % of change to the initial value / Average total tumour volume, % of change to the initial value: Day 28 vs Day 0; for Absolute number of new tumours / frequency of stabilisations of tumours present at initiation of treatment / volume of new tumours, less than the control (Control-2) value: end of observation
Procedure: The study was carried out on female FVB mice transgenic for HER-2/neu of the conventional category, the strain being obtained from the mouse bank Charles River Laboratories (Italy).
Duration of the administration course was 27-28 days.
The control groups were given the olive oil (placebo).
The macroscopically detectable tumor nodes were measured in the animals once per week during the weighing process.

[3] = medicament 2 mg/kg daily i.g., Day 0
[4] = medicament 2 mg/kg daily i.g., Day 7
[5] = medicament 2 mg/kg daily i.g., Day 14
[6] = medicament 2 mg/kg daily i.g., Day 21
[7] = medicament 2 mg/kg daily i.g., Day 28
[8] = medicament 20 mg/kg daily i.g., Day 0
[9] = medicament 20 mg/kg daily i.g., Day 7
[10] = medicament 20 mg/kg daily i.g., Day 14
[11] = medicament 20 mg/kg daily i.g., Day 21
[12] = medicament 20 mg/kg daily i.g., Day 28
[13] = medicament 20 mg/kg, vs Control-2, Day 0
[14] = medicament 20 mg/kg, vs Control-2, Day 7
[15] = medicament 20 mg/kg, vs Control-2, Day 14
[16] = medicament 20 mg/kg, vs Control-2, Day 21
[17] = medicament 20 mg/kg, vs Control-2, Day 28
[18] = medicament 100 mg/kg daily i.g., Day 0
[19] = medicament 100 mg/kg daily i.g., Day 7
[20] = medicament 100 mg/kg daily i.g., Day 14
[21] = medicament 100 mg/kg daily i.g., Day 21
[22] = medicament 100 mg/kg daily i.g., Day 28
[23] = medicament 100 mg/kg daily i.g.
[24] = medicament 100 mg/kg, vs Control-2, Day 0
[25] = medicament 100 mg/kg, vs Control-2, Day 7
[26] = medicament 100 mg/kg, vs Control-2, Day 14
[27] = medicament 100 mg/kg, vs Control-2, Day 21
[28] = medicament 100 mg/kg, vs Control-2, Day 28

C[C@H]1Oc2cc(OS(N)(=O)=O)ccc2C2=C1[C@@H]1CCCC(=O)[C@@]1(C)CC2 [medicament, 3-O-sulfamoyloxy-7β-methyl-O-homo-6-oxaestra-1,3,5(10),8(9)-tetraen]
growth of human skin fibroblasts [1]: does not influence the growth
antitumour activity compared with Tamoxifen [2]: not lower than that of the reference durg, Tamoxifen
antitumour activity compared with Tamoxifen ([2]; listed as agent): more effectively than clinically used Tamoxifen
antitumour effect on the model ([2]; dose range 2.0, 20.0 and 100.0 mg/kg): no pronounced antitumour effect
Average volume of new tumours at the end of the observation period ([2]; medicament 2 mg/kg): 0.33 cm^3
effect on frequency of stabilisations or volume of newly developing tumours ([2]; medicament 2.0 mg/kg): had no effect
relative change in the total volume of tumours versus control values ([2]; medicament 2.0 mg/kg): greater than the control values
Average volume of tumors existing at the beginning of the experiment (M) [2, 3]: 0.27 cm^3
Relative change of the average total volume of tumours to that of Day −1 (M) [2, 3]: 0%
Average total volume of tumours in mice (M) ([2]; medicament 2.0 mg/kg daily i.g., Day 0): 1.24 cm^3
Average volume of tumors existing at the beginning of the experiment (M) [2, 4]: 0.42 cm^3
Relative change of the average total volume of tumours to that of Day −1 (M) [2, 4]: 59%
Average total volume of tumours in mice (M) ([2]; medicament 2.0 mg/kg daily i.g., Day 7): 1.91 cm^3
Average volume of tumors existing at the beginning of the experiment (M) [2, 5]: 0.6 cm^3
Relative change of the average total volume of tumours to that of Day −1 (M) [2, 5]: 131%
Average total volume of tumours in mice (M) ([2]; medicament 2.0 mg/kg daily i.g., Day 14): 2.71 cm^3
Average volume of tumors existing at the beginning of the experiment (M) [2, 6]: 0.77 cm^3
Relative change of the average total volume of tumours to that of Day −1 (M) [2, 6]: 210%
Average total volume of tumours in mice (M) ([2]; medicament 2.0 mg/kg daily i.g., Day 21): 3.50* cm^3
Average volume of tumors existing at the beginning of the experiment (M) [2, 7]: 1.11 cm^3
Relative change of the average total volume of tumours to that of Day −1 (M) [2, 7]: 347*** %
Average total volume of tumours in mice (M) ([2]; medicament 2.0 mg/kg daily i.g., Day 28): 5.04 cm^3
Average tumor volume, % of change to the initial value ([2]; medicament 2 mg/kg daily i.g.): 311%
Average total tumour volume, % of change to the initial value ([2]; medicament 2.0 mg/kg daily i.g.): 307%
Absolute number of new tumours ([2]; medicament 2 mg/kg): 30
frequency of stabilisations of tumours present at initiation of treatment ([2]; medicament 2 mg/kg): 5%
TGI (average tumor volume) ([2]; medicament 2 mg/kg, vs Control-3, Day 0): 29%
TGI (average total tumour volume) ([2]; medicament 2.0 mg/kg, vs Control-3, Day 0): 45%
TGI (average tumor volume) ([2]; medicament 2 mg/kg, vs Control-3, Day 7): 16%
TGI (average total tumour volume) ([2]; medicament 2.0 mg/kg, vs Control-3, Day 7): 37%
TGI (average tumor volume) ([2]; medicament 2 mg/kg, vs Control-3, Day 14): 14%
TGI (average total tumour volume) ([2]; medicament 2.0 mg/kg, vs Control-3, Day 14): 35%
TGI (average tumor volume) ([2]; medicament 2 mg/kg, vs Control-3, Day 21): 9%
TGI (average total tumour volume) ([2]; medicament 2.0 mg/kg, vs Control-3, Day 21): 31%
TGI (average tumor volume) ([2]; medicament 2 mg/kg, vs Control-3, Day 28): −14%
TGI (average total tumour volume) ([2]; medicament 2.0 mg/kg, vs Control-3, Day 28): 13%
Average volume of new tumours at the end of the observation period ([2]; medicament 20 mg/kg): 0.19±0.04 cm^3 and 0.19 cm^3
Average total volume of tumours in mice (M) [2, 8]: 0.41 cm^3
Average volume of tumors existing at the beginning of the experiment (M) [2, 8]: 0.18 cm^3
Relative change of the average total volume of tumours to that of Day −1 (M) ([2]; medicament 20.0 mg/kg daily i.g., Day 0): 0%
Average total volume of tumours in mice (M) [2, 9]: 0.62 cm^3
Average volume of tumors existing at the beginning of the experiment (M) [2, 9]: 0.28 cm^3
Relative change of the average total volume of tumours to that of Day −1 (M) ([2]; medicament 20.0 mg/kg daily i.g., Day 7): 55%
Average total volume of tumours in mice (M) [2, 10]: 0.94 cm^3
Average volume of tumors existing at the beginning of the experiment (M) [2, 10]: 0.43 cm^3
Relative change of the average total volume of tumours to that of Day −1 (M) ([2]; medicament 20.0 mg/kg daily i.g., Day 14): 145%
Average total volume of tumours in mice (M) [2, 11]: 1.18 cm^3
Average volume of tumors existing at the beginning of the experiment (M) [2, 11]: 0.54 cm^3
Relative change of the average total volume of tumours to that of Day −1 (M) ([2]; medicament 20.0 mg/kg daily i.g., Day 21): 209** %
Average total volume of tumours in mice (M) [2, 12]: 1.22 cm^3
Average volume of tumors existing at the beginning of the experiment (M) [2, 12]: 0.55 cm^3
Relative change of the average total volume of tumours to that of Day −1 (M) ([2]; medicament 20.0 mg/kg daily i.g., Day 28): 227*** %
Average total tumour volume, % of change to the initial value ([2]; medicament 20 mg/kg daily i.g.): 198%
Average tumor volume, % of change to the initial value ([2]; medicament 20 mg/kg daily i.g.): 206%
Absolute number of new tumours ([2]; medicament 20 mg/kg): 22
frequency of stabilisations of tumours present at initiation of treatment ([2]; medicament 20 mg/kg): 9%
volume of new tumours, less than the control (Control-2) value ([2]; medicament 20 mg/kg): 32%
TGI (average total tumour volume) [2, 13]: −116%
TGI (average tumor volume) [2, 13]: −125%
TGI (average total tumour volume) [2, 14]: −114%
TGI (average tumor volume) [2, 14]: −115%
TGI (average total tumour volume) [2, 15]: −45%
TGI (average tumor volume) [2, 15]: −54%
TGI (average total tumour volume) [2, 16]: −19%
TGI (average tumor volume) [2, 16]: −26%
TGI (average total tumour volume) [2, 17]: 12%
TGI (average tumor volume) [2, 17]: 10%
Average volume of new tumours at the end of the observation period ([2]; medicament 100 mg/kg): 0.18±0.04 cm^3 and 0.18 cm^3
Average total volume of tumours in mice (M) [2, 18]: 0.28 cm^3
Average volume of tumors existing at the beginning of the experiment (M) [2, 18]: 0.13 cm^3
Relative change of the average total volume of tumours to that of Day −1 (M) ([2]; medicament 100.0 mg/kg daily i.g., Day 0): 0%
Average total volume of tumours in mice (M) [2, 19]: 0.41 cm^3
Average volume of tumors existing at the beginning of the experiment (M) [2, 19]: 0.19 cm^3
Relative change of the average total volume of tumours to that of Day −1 (M) ([2]; medicament 100.0 mg/kg daily i.g., Day 7): 42%
Average total volume of tumours in mice (M) [2, 20]: 0.59 cm^3
Average volume of tumors existing at the beginning of the experiment (M) [2, 20]: 0.27 cm^3
Relative change of the average total volume of tumours to that of Day −1 (M) ([2]; medicament 100.0 mg/kg daily i.g., Day 14): 89* %
Average total volume of tumours in mice (M) [2, 21]: 0.81 cm^3
Average volume of tumors existing at the beginning of the experiment (M) [2, 21]: 0.37 cm^3
Relative change of the average total volume of tumours to that of Day −1 (M) ([2]; medicament 100.0 mg/kg daily i.g., Day 21): 177*** %
Average total volume of tumours in mice (M) [2, 22]: 0.97* cm^3
Average volume of tumors existing at the beginning of the experiment (M) [2, 22]: 0.44 cm^3
Relative change of the average total volume of tumours to that of Day −1 (M) ([2]; medicament 100.0 mg/kg daily i.g., Day 28): 269*** %
Average total tumour volume, % of change to the initial value [2, 23]: 246%
Average tumor volume, % of change to the initial value [2, 23]: 238%
Absolute number of new tumours ([2]; medicament 100 mg/kg): 19
frequency of stabilisations of tumours present at initiation of treatment ([2]; medicament 100 mg/kg): 9%
volume of new tumours, less than the control (Control-2) value ([2]; medicament 100 mg/kg): 36%
TGI (average total tumour volume) [2, 24]: −47%
TGI (average tumor volume) [2, 24]: −63%
TGI (average total tumour volume) [2, 25]: −41%
TGI (average tumor volume) [2, 25]: −46%
TGI (average total tumour volume) [2, 26]: 9%
TGI (average tumor volume) [2, 26]: 4%
TGI (average total tumour volume) [2, 27]: 18%
TGI (average tumor volume) [2, 27]: 14%
TGI (average total tumour volume) [2, 28]: 30%
TGI (average tumor volume) [2, 28]: 28%
relative change in the total volume of tumours versus control groups ([2]; medicament 20 and 100 mg/kg): statistically significantly lower
